Results as given in publication PMC10085060 (Oncotarget, 2023).

Key:
[1] = Day 10 of riluzole single agent treatment (100 mg BID), advanced melanoma patients, n = 9; cited from earlier work
[2] = Drug related adverse events (CTCAE version 4.0); assay type: in vivo, human
Method: Safety assessments including complete blood counts, serum chemistries, liver enzymes and toxicity evaluations were completed at baseline, day 1 and 15 of cycle 1, and then day 1 of every cycle thereafter. Toxicities were evaluated and graded using the CTEP NCI Common Terminology Criteria for Adverse Events (CTCAE), version 4.0.

[3] = tested on: RAF1; details: cited from earlier work
[4] = drug related AE, Grade ≥3, n=35
[5] = drug related AE, any grade, n=35

## Nc1nc2ccc(OC(F)(F)F)cc2s1 [riluzole]
[1]
  riluzole trough levels, geomean: 78.4 ng/mL

## CNC(=O)c1cc(Oc2ccc(NC(=O)Nc3ccc(Cl)c(C(F)(F)F)c3)cc2)ccn1 [sorafenib]
[2]; [4]
  Alkaline Phosphatase Increase: 2
  Anemia: 1
  Arthralgia: 1
  Cardiac troponin I increased: 1
  Congestive Heart Failure: 1
  Fatigue: 4
  Hypertension: 1
  Hypokalemia: 1
  Hyponatremia: 2
  Hypophosphatemia: 4
  Lipase Increase: 2
  Maculopapular Rash: 4
  Myocardial infarction: 1
  Palmar-plantar erythrodysesthesia syndrome: 1
  Pruritus: 1
  White Blood Cell Decreased: 2
  Wound complication: 1
[2]; [5]
  Acute Coronary Syndrome: 1
  Alanine Aminotransferase Increase: 1
  Alkaline Phosphatase Increase: 2
  Anemia: 8
  Arthralgia: 1
  Aspartate Aminotransferase Increase: 3
  Blood Bilirubin Increase: 2
  Bullous dermatitis: 1
  Cardiac troponin I increased: 1
  Congestive Heart Failure: 1
  Diarrhea: 8
  Dry Mouth: 1
  Dry skin: 4
  Dysgeusia: 1
  Dyspepsia: 1
  Edema (limbs): 1
  Fatigue: 13
  Fecal Incontinence: 1
  Gastrointestinal Fistula: 1
  Hypercalcemia: 1
  Hyperglycemia: 4
  Hyperkalemia: 3
  Hypoalbuminemia: 3
  Hypocalcemia: 2
  Hypokalemia: 1
  Hypomagnesemia: 2
  Hyponatremia: 7
  Hypophosphatemia: 11
  Hypotension: 1
  Hypothyroidism: 1
  Increased blood urea nitrogen: 1
  Lipase Increase: 5
  Lymphocyte Count Decrease: 10
  Maculopapular Rash: 11
  Mucosal infection: 1
  Mucositis oral: 5
  Muscle weakness: 1
  Myocardial infarction: 1
  Nausea: 2
  Oral pain: 1
  Palmar-plantar erythrodysesthesia syndrome: 11
  Peripheral Sense Neuropathy: 1
  Platelet Count Decrease: 3
  Pruritus: 4
  Serum amylase increased: 3
  Urinary Tract Infection: 1
  Vomiting: 1
  Weight Loss: 2
  White Blood Cell Decreased: 2
  Would dehiscence: 1
  Wound complication: 1
[2]; of 35 patients
  patients with toxicities attributed to the drug (alone), number: 28
  patients with toxicities attributed to the drug by the treating investigator: 80%
[3]
  IC50: […]
